Measurements from paper PMC5400251, “Effect of quinoline based 1,2,3-triazole and its structural analogues on growth and virulence attributes of Candida albicans” (PLoS ONE, 2017).
In brackets after ≈: the same amount, converted by molar mass.

Columns and labels:
[1] = tested on: C. albicans D27 (FLC-sensitive clinical isolate); experiment: Broth dilution IC50 determination; type: cell-based; conditions: Candida albicans, 24 h; read-out: Anti-Candida Activity (IC50± S.D.) C. albicans D27
Method: (§1) Broth dilution technique was employed to determine the IC50 values of all the synthesized 1,2,3 triazole derivatives (3a-c) against C. albicans ATCC 90028, C. glabrata ATCC 90030, C. tropicalis ATCC 750 and four clinical isolates of C. albicans namely D27, D31, D39 (FLC-sensitive) and D15.9 (FLC-resistant). The strains were maintained on yeast extract:peptone:dextrose ([…]) nutrient agar (2.5%) slants at 4°C. The test compounds were dissolved in DMSO with less than 4% concentration of it in the final test volume. Different concentrations (1000… 7.8 μg/mL) of test compounds in Sabouraud dextrose (SD) broth medium were dispensed into the wells, then inoculated with the test organism with approx. 2.5 × 10^3 cells/mL and incubated at 37°C for 24 h. After incubation period, the optical density was measured at 600 nm by using Thermo Scientific Multiskan Go plate reader. […] All the experiments were done in triplicate at separate times.

[2] = tested on: C. albicans D31 (FLC-sensitive clinical isolate); experiment: Broth dilution IC50 determination; type: cell-based; conditions: Candida albicans, 24 h; read-out: Anti-Candida Activity (IC50± S.D.) C. albicans D31
Method: as §1

[3] = tested on: C. tropicalis ATCC 750; experiment: Broth dilution IC50 determination; type: cell-based; conditions: Candida tropicalis, ATCC750, SD broth, 37°C, 24 h, OD 600 nm, read-out: Anti-Candida Activity (IC50± S.D.) C. tropicalis ATCC750
Method: as §1

[4] = tested on: C. albicans D39 (FLC-sensitive clinical isolate); experiment: Broth dilution IC50 determination; type: cell-based; conditions: Candida albicans, 24 h; read-out: Anti-Candida Activity (IC50± S.D.) C. albicans D39
Method: as §1

[5] = tested on: C. glabrata ATCC 90030; experiment: Broth dilution IC50 determination; type: cell-based; conditions: Nakaseomyces glabratus, ATCC90030, SD broth, 37°C, 24 h, OD 600 nm, read-out: Anti-Candida Activity (IC50± S.D.) C. glabrata ATCC90030
Method: as §1

[6] = tested on: C. albicans ATCC 90028; experiment: Broth dilution IC50 determination; type: cell-based; conditions: Candida albicans, ATCC90028, SD broth, 37°C, 24 h, OD 600 nm, read-out: Anti-Candida Activity (IC50± S.D.) C. albicans ATCC90028
Method: as §1

[7] = tested on: C. albicans D15.9 (FLC-resistant clinical isolate); experiment: Broth dilution IC50 / MIC determination; type: cell-based; conditions: Candida albicans; for IC50: 24 h, read-out: Anti-Candida Activity (IC50± S.D.) C. albicans D15.9
Method: as §1

[8] = Cell proliferation assay (cytotoxicity); type: cell-based; conditions: monkey, Vero cells (monkey kidney fibroblasts), positive control
Method: The in vitro cytotoxicity of compounds 3a and 3b to mammalian cells was also determined. The assay was performed in 96-well tissue culture-treated plates as described earlier. Vero cells (monkey kidney fibroblasts) were seeded to the wells of 96-well plate at a density of 25,000 cells/well and incubated for 24 h. Samples at different concentrations were added and plates were again incubated for 48 h. The number of viable cells was determined by Neutral Red assay. IC50 values were obtained from dose response curves. Doxorubicin was used as a positive control for cytotoxicity.

[9] = Hemolytic assay; type: cell-based; conditions: human, 37°C, read-out: Hemolysis of hRBCs
Method: Human blood from a healthy individual was collected in tubes containing EDTA as anti-coagulant. The erythrocytes were harvested by centrifugation for 10 min at 2000 rpm and 20°C, washed three times in PBS. To the pellet, PBS was added to yield a 10% (v/v) erythrocytes/PBS suspension. The 10% suspension was then diluted 1:10 in PBS. From each suspension, 100 μL was added in triplicate to 100 μL of a different dilution series of test compounds in the same buffer in micro centrifuge tubes. […] The tubes were incubated for 1 h at 37°C and then centrifuged for 10 min at 2000 rpm and 20°C. From the supernatant, 150 μL was transferred to a flat-bottomed microtiter plate (Tarson), and the absorbance was measured spectrophotometrically at 450 nm. The hemolysis percentage was calculated by following equation: %Hemolysis=[(A450oftestcompoundtreatedsample−A450ofbuffertreatedsample)÷(A450of1%TritonX−100treatedsample−A450ofbuffertreatedsample)]×100

[10] = tested on: C. albicans ATCC 90028, C. albicans D27 (FLC-susceptible) and C. albicans D15.9 (FLC-resistant); experiment: Time kill curve study, three strains; type: cell-based; conditions: 40 μg/mL; C. albicans standard and FLC-resistant
Method: Time-kill curves were used for testing the fungicidal or fungistatic nature of the lead inhibitors 3a and 3b. The experimental procedure was performed according to the method reported by Wang et al.. C. albicans ATCC 90028, C. albicans D27 (FLC-susceptible) and C. albicans D15.9 (FLC-resistant) strains were used as test organisms. Fluconazole was used as a positive control. Freshly prepared sterile YEPD medium was inoculated by fresh culture (approx. 2×10^3 cells) of test organisms in different conical flasks. The cells were exposed to the test compounds at 2MIC, MIC and MIC/2 values, separately. All the conical flasks having different sets of test compounds and concentrations were incubated at 37°C and 160 rpm. At predetermined time points (0, 4, 12, 24, and 48 h after incubation with agitation at 37°C), a 100-μL aliquot was removed from every solution and appropriately diluted in sterile water. A 100-μl aliquot from each dilution was spread over the YEPD agar plate. Colony counts were determined after incubation at 37°C for 24 h. All the time-kill curve experiments were conducted in duplicate and mean colony count data (log10 CFU/mL) were plotted as a function of time for each strain.

[11] = tested on: C. albicans D27 (FLC-susceptible); experiment: Growth assay (growth curve); type: cell-based; conditions: 40 μg/mL of FLC
Method: (§2) The C. albicans cells were freshly revived by subculture on the SD agar plate. A loopful of inoculum was introduced into the SD broth and cells were grown for 16 h at 37°C before use. Approximately 2×10^3 cells/mL were then inoculated into the freshly prepared 50 mL sterile SD medium. […] At predetermined time periods (0, 2, 4, 6, 8, 10, 12, 14, 16, 18, 20 22, and 24 after incubation with agitation at 37°C), 1 mL aliquot of each sample was removed from the conical flask and growth was measured tubidometrically at 600 nm using Thermo Multiskan spectrophotometer. Optical density was recorded for each concentration against time (h).

[12] = tested on: C. albicans D15.9 (FLC-resistant); experiment: Growth assay (growth curve); type: cell-based; conditions: 40 μg/mL of FLC
Method: as §2

[13] = tested on: C. albicans ATCC 90028 (Standard); experiment: Growth assay (growth curve); type: cell-based; conditions: 40 μg/mL of FLC
Method: as §2

[14] = tested on: C. albicans D27 (FLC-susceptible); experiment: Disk diffusion assay; type: cell-based; conditions: Candida albicans; 20 μg per disk, 48 h; read-out: Zone of Inhibition
Method: (§3) Disk diffusion assay was performed using C. albicans ATCC 90028 (standard), the two clinical isolates, C. albicans D27 (FLC-susceptible), and C. albicans D15.9 (FLC-resistant) for the lead inhibitors 3a and 3b. The C. albicans cells were inoculated into liquid SD medium and grown over night at 37°C. The cells were then centrifuged at 3000 rpm for 5 min, washed three times with PBS and then suspended in PBS again. Approximately, 10^5 cells/mL were inoculated into molten SD agar medium at 42°C and poured into 100-mm-diameter petriplates. Sterilized 4 mm disks of Whatman paper were placed on solid agar and 1, 2, and 4 μL of 3a and 2, 4, and 8 μL of 3b from the stock solution of 10 mg/mL were spotted on the disk. […] The diameter of zone of inhibition (ZOI) was recorded in millimetres after 48 h and was compared with that of control. This experiment was repeated thrice and values were shown in terms of mean ±standard error of mean.

[15] = tested on: C. albicans D15.9 (FLC-resistant); experiment: Disk diffusion assay; type: cell-based; conditions: 48 h
Method: as §3

[16] = tested on: C. albicans ATCC 90028 (Standard); experiment: Disk diffusion assay; type: cell-based; conditions: 20 μg per disk, 48 h
Method: as §3

[17] = tested on: ergosterol biosynthesis; experiment: Ergosterol estimation assay; conditions: 40 μg/mL of FLC, 16 h
[18] = tested on: C. albicans; experiment: Disk diffusion assay, appearance of zones (strains not distinguished); type: cell-based
Method: as §3

[19] = tested on: ergosterol biosynthesis; experiment: Ergosterol estimation assay; conditions: 40 μg/mL of FLC, 16 h; remark: listed apart in the source
[20] = molecular target: T1, plasma membrane H+ ATPase (Candida albicans, UniProt P28877); experiment: Proton extrusion measurement (H+ efflux); type: cell-based, C. albicans ATCC 90028; conditions: glucose 5mM alone
T1 construct: endogenous in cells; host or cells: C. albicans ATCC 90028; clinical isolates C. albicans D27 (FLC-susceptible) and D15.9 (FLC-resistant); mid-log phase whole cells
Method: (§4) The proton pumping activity of C. albicans was determined by monitoring acidification of external medium by measuring pH as describe earlier. In brief, the mid-log phase cells were harvested from SD medium by centrifugation at 3000 rpm for 15 min which is followed by three washings with phosphate buffer saline (PBS). A solution containing 0.1 M KCl and 0.1 mM CaCl2 in distilled water was prepared. Compounds 3a and 3b at the concentrations of 50 and 100 μg/mL were separately added in this solution. […] Initial pH was adjusted to 7.0 using 0.01 M HCl/NaOH. Approximately 0.2 g of cells were suspended in each set of solution. Suspension was kept in a double-jacketed glass container with constant stirring. Again, the pH of suspension was maintained as 7.0 for 1 min by using 0.01 N NaOH. The rate of H^+ extrusion was then monitored and calculated from the volume of 0.01 N NaOH consumed per min per mg weight of cells. Glucose has been reported as the stimulator of proton extrusion pump. Therefore above experiment was also repeated in the presence of 5 mM of glucose.

[21] = molecular target: T1, plasma membrane H+ ATPase; experiment: cell-based; design: species or system C. albicans D15.9 (FLC-resistant)
Method: as §4

[22] = molecular target: T1, plasma membrane H+ ATPase; experiment: Proton extrusion measurement (H+ efflux); type: cell-based, C. albicans D27 (FLC-susceptible)
Method: as §4

T1 sequence (P28877 whole entry): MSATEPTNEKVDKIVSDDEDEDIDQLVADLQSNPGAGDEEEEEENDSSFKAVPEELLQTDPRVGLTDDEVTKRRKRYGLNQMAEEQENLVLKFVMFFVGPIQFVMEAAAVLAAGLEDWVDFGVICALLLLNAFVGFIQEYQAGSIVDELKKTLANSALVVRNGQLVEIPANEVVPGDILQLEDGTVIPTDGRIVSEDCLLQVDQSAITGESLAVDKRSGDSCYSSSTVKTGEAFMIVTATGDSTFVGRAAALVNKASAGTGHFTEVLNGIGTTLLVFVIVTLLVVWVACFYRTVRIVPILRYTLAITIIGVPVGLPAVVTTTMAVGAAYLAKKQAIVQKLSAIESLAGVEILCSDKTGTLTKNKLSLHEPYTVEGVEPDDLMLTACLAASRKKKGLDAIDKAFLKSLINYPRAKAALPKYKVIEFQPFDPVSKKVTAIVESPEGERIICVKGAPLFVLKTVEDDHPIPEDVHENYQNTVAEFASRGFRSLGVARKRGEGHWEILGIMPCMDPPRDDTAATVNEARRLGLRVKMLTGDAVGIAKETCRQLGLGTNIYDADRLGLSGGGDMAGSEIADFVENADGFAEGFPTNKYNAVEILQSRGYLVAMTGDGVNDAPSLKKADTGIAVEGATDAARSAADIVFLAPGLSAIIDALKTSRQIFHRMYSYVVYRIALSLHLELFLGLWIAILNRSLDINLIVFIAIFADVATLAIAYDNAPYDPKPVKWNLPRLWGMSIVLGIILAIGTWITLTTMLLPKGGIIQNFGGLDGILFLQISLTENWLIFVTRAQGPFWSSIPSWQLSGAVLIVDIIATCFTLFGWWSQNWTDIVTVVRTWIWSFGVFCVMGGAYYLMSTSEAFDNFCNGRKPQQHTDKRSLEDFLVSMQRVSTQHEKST

SMILES: c1ccc(Cn2cc(COc3cccc4ccccc34)nn2)cc1 [Compound 3c, 1-Benzyl-4-((naphthalen-1-yloxy)methyl)-1H-1,2,3-triazole]
- IC50 [1]: 43.7 ± 1.18 mg/L (≈ 139 µM)
- IC50 [2]: 119 ± 2.94 mg/L (≈ 377 µM)
- IC50 [3]: 38.2 ± 0.83 mg/L (≈ 121 µM)
- IC50 [4]: 62.2 ± 1.07 mg/L (≈ 197 µM)
- IC50 [5]: 107 ± 1.41 mg/L (≈ 339 µM)
- IC50 [6]: 91.2 ± 0.76 mg/L (≈ 289 µM)
- IC50 [7]: 66.9 ± 1.84 mg/L (≈ 212 µM)

SMILES: COc1cccc2c1C(=O)c1c(O)c3c(c(O)c1C2=O)C[C@@](O)(C(=O)CO)C[C@@H]3O[C@H]1C[C@H](N)[C@H](O)[C@H](C)O1 [Doxorubicin]
- IC50 at 48 h [8]: > 5 mg/L

SMILES: OC(Cn1cncn1)(Cn1cncn1)c1ccc(F)cc1F [FLC, Fluconazole, reference compound]
- hemolysis at 1 h, 500 μg/mL [9]: 68.6%
- IC50 [1]: < 7.5 mg/L
- IC50 [2]: < 7.5 mg/L
- IC50 [3]: 8.55 ± 1.59 mg/L (≈ 27.9 µM)
- IC50 [4]: < 7.5 mg/L
- IC50 [5]: 7.81 ± 0.88 mg/L (≈ 25.5 µM)
- IC50 [6]: 15.6 ± 0.65 mg/L (≈ 51 µM)
- MIC [7]: > 1 mg/L
- IC50 [7]: > 1000 mg/L
- CFU/mL, treated versus untreated cells [10]: no significant difference in CFU/mL
- Time by which lag phase was over [11]: 20 h
- Time by which lag phase was over [12]: 16 h
- Time by which lag phase was over [13]: 16 h
- zone of inhibition at 20 µg/disc [14]: 27 ± 1.35 mm
- Zone of Inhibition ([15]; 20 μg per disk): 24± 0.74 mm
- zone of inhibition at 20 µg/disc ([15]; Candida albicans): 24 mm
- Zone of Inhibition [16]: 26± 1.02 mm
- zone of inhibition at 20 µg/disc ([16]; Candida albicans, ATCC90028): 26 mm
- Decrease in ergosterol content [17]: 96%
- Appearance of zone around disks (clear = fungicidal nature, turbid = fungistatic nature) [18]: turbid
- Decrease in ergosterol content [19]: 100%

SMILES: OC[C@H]1OC(O)[C@H](O)[C@@H](O)[C@@H]1O (stereo partly shown) [Glucose, reference compound]
- Range of relative H+ efflux rate [20]: 54.95 ± 2.7 ×10^−6 mol min^−1 mg cells^−1
- Increase of the rate of H+ extrusion ([21]; 5 mM of glucose): 36%
- Range of relative H+ efflux rate ([21]; glucose 5mM alone): 43.33 ± 2.1 ×10^−6 mol min^−1 mg cells^−1
- Increase of the rate of H+ extrusion ([22]; 5 mM of glucose): 24%
- Range of relative H+ efflux rate ([22]; glucose 5mM alone): 40.00 ± 2.0 ×10^−6 mol min^−1 mg cells^−1
